Experimental data reported in ChEMBL document CHEMBL5352396, “Synthesis and biological evaluation of novel FiVe1 derivatives as potent and selective agents for the treatment of mesenchymal cancers” (Eur J Med Chem, 2022).
Calls of active or inactive are those of the source. No cut-off for these calls is given here.

How the values were obtained:
[1] = AUC (0 to last) in mouse at 25 mg/kg, po by LC-MS/MS analysis; format: ADME, organism-based; set-up: dose 25 mg/kg, route po; conditions: in vivo
[2] = AUC (0 to infinity) in mouse at 25 mg/kg, po by LC-MS/MS analysis; format: ADME, organism-based; set-up: dose 25 mg/kg, route po; conditions: in vivo
[3] = Half life in mouse at 25 mg/kg, po by LC-MS/MS analysis; format: ADME, organism-based; conditions: in vivo
[4] = Tmax in mouse at 25 mg/kg, po by LC-MS/MS analysis; format: ADME, organism-based; conditions: in vivo
[5] = Cmax in mouse at 25 mg/kg, po by LC-MS/MS analysis; format: ADME, organism-based; set-up: dose 25 mg/kg, route po; conditions: in vivo
[6] = Kinetic solubility of the compound in DPBS buffer at pH 7.4 incubated for 16 hrs under shaking condition by HPLC analysis; format: physicochemical; conditions: read-out: Kinetic_solubility
Vimentin (Homo sapiens) [7] = target: Vimentin (Homo sapiens) (UniProt P08670); assay: Induction of Vimentin phosphorylation in human HT-1080 cells at 1 uM incubated for 24 hrs by Western blot analysis; format: cell-based; conditions: filed as activator
Vimentin (Homo sapiens) [8] = target: Vimentin (Homo sapiens) (UniProt P08670); assay: Induction of Vimentin phosphorylation in human RD cells at 1 uM incubated for 24 hrs by Western blot analysis; format: cell-based; conditions: filed as activator
Vimentin (Homo sapiens) [9] = target: Vimentin (Homo sapiens) (UniProt P08670); assay: Induction of Vimentin phosphorylation in human GCT cells at 1 uM incubated for 24 hrs by Western blot analysis; format: cell-based; conditions: filed as activator
Vimentin (Homo sapiens) [10] = target: Vimentin (Homo sapiens) (UniProt P08670); assay: Induction of Vimentin phosphorylation in human HT-1080 cells at 100 nM incubated for 24 hrs by Western blot analysis; format: cell-based
Vimentin (Homo sapiens) [11] = target: Vimentin (Homo sapiens) (UniProt P08670); assay: Induction of Vimentin phosphorylation in human RD cells at 100 nM incubated for 24 hrs by Western blot analysis; format: cell-based
Vimentin (Homo sapiens) [12] = target: Vimentin (Homo sapiens) (UniProt P08670); assay: Induction of Vimentin phosphorylation in human GCT cells at 100 nM incubated for 24 hrs by Western blot analysis; format: cell-based
[13] = Metabolic stability in CD-1 mouse liver microsomes assessed as half life at 100 uM measured upto 60 mins in presence of NADPH by LC-MS/MS analysis; format: ADME, Microsome; conditions: mouse, microsomes, 1 h, 100 µM
[14] = Metabolic stability in CD-1 mouse liver microsomes assessed as intrinsic clearance at 100 uM measured upto 60 mins in presence of NADPH by LC-MS/MS analysis; format: ADME, Microsome; conditions: mouse, microsomes, 1 h, 100 µM
[15] = Metabolic stability in CD-1 mouse liver microsomes assessed as parent compound remaining at 100 uM measured after 60 mins in presence of NADPH by LC-MS/MS analysis; format: ADME, Microsome; conditions: read-out: Stability
[16] = Drug metabolism in mouse hepatocytes assessed as dealkylation by measuring M1 metabolite formation; format: ADME, cell-based, Hepatocyte
[17] = Drug metabolism in mouse hepatocytes assessed as dealkylation and oxygenation by measuring M2 metabolite formation; format: ADME, cell-based, Hepatocyte
[18] = Drug metabolism in mouse hepatocytes assessed as dealkylation by measuring M3 metabolite formation; format: ADME, cell-based, Hepatocyte
[19] = Drug metabolism in mouse hepatocytes assessed as dealkylation by measuring M4 metabolite formation; format: ADME, cell-based, Hepatocyte
[20] = Drug metabolism in mouse hepatocytes assessed as oxygenation by measuring M5 metabolite formation; format: ADME, cell-based, Hepatocyte
[21] = Drug metabolism in mouse hepatocytes assessed as oxygenation by measuring M6 metabolite formation; format: ADME, cell-based, Hepatocyte
[22] = Drug metabolism in mouse hepatocytes assessed as oxygenation by measuring M7 metabolite formation; format: ADME, cell-based, Hepatocyte
HT-1080 = assay: cells; conditions: Homo sapiens, HT-1080, 72 h
RD = assay: cells; conditions: Homo sapiens, 72 h
GCT = assay: cells; conditions: Homo sapiens, 72 h
MCF7 = assay: cells; conditions: Homo sapiens, MCF7, 72 h
[23] = AUC (0 to last) in mouse at 10 mg/kg, po by LC-MS/MS analysis; format: ADME, organism-based; set-up: dose 10 mg/kg, route po; conditions: in vivo
[24] = AUC (0 to last) in mouse at 1 mg/kg, ip by LC-MS/MS analysis; format: ADME, organism-based; set-up: dose 1 mg/kg, route ip; conditions: in vivo
[25] = AUC (0 to infinity) in mouse at 10 mg/kg, po by LC-MS/MS analysis; format: ADME, organism-based; set-up: dose 10 mg/kg, route po; conditions: in vivo
[26] = AUC (0 to infinity) in mouse at 1 mg/kg, ip by LC-MS/MS analysis; format: ADME, organism-based; set-up: dose 1 mg/kg, route ip; conditions: in vivo
[27] = Half life in mouse at 10 mg/kg, po by LC-MS/MS analysis; format: ADME, organism-based; conditions: in vivo
[28] = Half life in mouse at 1 mg/kg, ip by LC-MS/MS analysis; format: ADME, organism-based; conditions: in vivo
[29] = Tmax in mouse at 10 mg/kg, po by LC-MS/MS analysis; format: ADME, organism-based; conditions: in vivo
[30] = Tmax in mouse at 1 mg/kg, ip by LC-MS/MS analysis; format: ADME, organism-based; conditions: in vivo
[31] = Tlast in mouse at 10 mg/kg, po by LC-MS/MS analysis; format: ADME, organism-based; conditions: in vivo
[32] = Tlast in mouse at 1 mg/kg, ip by LC-MS/MS analysis; format: ADME, organism-based; conditions: in vivo
[33] = Cmax in mouse at 1 mg/kg, ip by LC-MS/MS analysis; format: ADME, organism-based; set-up: dose 1 mg/kg, route ip; conditions: in vivo
[34] = Cmax in mouse at 10 mg/kg, po by LC-MS/MS analysis; format: ADME, organism-based; set-up: dose 10 mg/kg, route po; conditions: in vivo
[35] = Oral bioavailability in mouse at 10 mg/kg by LC-MS/MS analysis; format: ADME, organism-based; conditions: in vivo

Vimentin (Homo sapiens), sequence (P08670 whole entry): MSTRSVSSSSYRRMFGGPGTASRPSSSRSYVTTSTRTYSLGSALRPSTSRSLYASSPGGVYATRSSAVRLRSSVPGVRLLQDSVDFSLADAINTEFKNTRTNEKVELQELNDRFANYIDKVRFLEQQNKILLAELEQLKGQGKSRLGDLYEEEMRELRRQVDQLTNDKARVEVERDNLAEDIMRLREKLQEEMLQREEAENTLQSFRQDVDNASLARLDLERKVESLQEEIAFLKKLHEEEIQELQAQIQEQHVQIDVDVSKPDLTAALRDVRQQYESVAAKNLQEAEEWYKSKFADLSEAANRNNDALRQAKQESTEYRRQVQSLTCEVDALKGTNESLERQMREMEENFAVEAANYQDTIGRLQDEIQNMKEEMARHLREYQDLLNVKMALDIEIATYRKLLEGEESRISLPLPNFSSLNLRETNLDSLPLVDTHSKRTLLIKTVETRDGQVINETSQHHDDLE

## Clc1cccc(N2CCN(c3cnnc4c(Cl)cccc34)CC2)c1
[1]
  AUC(0-t): 0.31 µg·h/mL
[2]
  AUC(0-inf): 0.339 µg·h/mL
[3]
  half-life: 274 min
[4]
  Tmax: 30 min
[5]
  Cmax: 0.11 µg/mL
[6]
  solubility kinetic at 16 h: < 1 µM
Vimentin (Homo sapiens) [7]
  Activity: Active
Vimentin (Homo sapiens) [8]
  Activity: Active
Vimentin (Homo sapiens) [9]
  Activity: Active
Vimentin (Homo sapiens) [10]
  Activity: inactive
Vimentin (Homo sapiens) [11]
  Activity: inactive
Vimentin (Homo sapiens) [12]
  Activity: inactive
[13]
  t1/2: 11.9 min
[14]
  microsomal intrinsic clearance: 116.1 µL/min/mg
[15]
  remaining at 1 h, 100 µM: 3.2%
[16]
  Drug metabolism: Metabolite_Detected
[17]
  Drug metabolism: Metabolite_Detected
[18]
  Drug metabolism: Metabolite_Detected
[19]
  Drug metabolism: Metabolite_Detected
[20]
  Drug metabolism: Metabolite_Detected
[21]
  Drug metabolism: Metabolite_Detected
[22]
  Drug metabolism: Metabolite_Detected
HT-1080
  IC50: 1.56 µM
RD
  IC50: 3.1 µM
GCT
  IC50: 1.69 µM
MCF7
  IC50: > 20 µM

## COc1cc(Cl)cc(N2CCN(c3cnnc4c(Cl)cccc34)CC2)c1
[23]
  AUC(0-t): 0.371 µg·h/mL
[24]
  AUC(0-t): 0.208 µg·h/mL
[25]
  AUC(0-inf): 0.534 µg·h/mL
[26]
  AUC(0-inf): 0.211 µg·h/mL
[27]
  half-life: 281 min
[28]
  half-life: 35.4 min
[29]
  Tmax: 40.2 min
[30]
  Tmax: 15 min
[31]
  Tlast: 8 h
[32]
  Tlast: 18 h
[33]
  Cmax: 0.197 µg/mL
[34]
  Cmax: 0.155 µg/mL
Vimentin (Homo sapiens) [10]; filed as activator
  Activity: Active
Vimentin (Homo sapiens) [11]; filed as activator
  Activity: Active
Vimentin (Homo sapiens) [12]; filed as activator
  Activity: Active
[35]
  F: 25%
[13]
  t1/2: 1.7 min
[14]
  microsomal intrinsic clearance: 805.3 µL/min/mg
[15]
  remaining at 1 h, 100 µM: 0%
HT-1080
  IC50: 0.044 µM
RD
  IC50: 0.061 µM
GCT
  IC50: 0.049 µM
MCF7
  IC50: 11.2 µM
